The assay relates to Vibrio cholerae.

Molecules are shown by their SMILES.

Description: Inhibition of Vibrio cholerae neuraminidase using 4-MU-NANA as substrate preincubated for 15 mins prior addition of substrate measured at 5 mins intervals by fluorimetry relative to control

On to `COc1ncc(C(F)(F)F)cc1NC(=O)OCc1cn(-c2ccc(O[C@]3(C(=O)O)C[C@H](O)[C@@H](NC(C)=O)[C@H]([C@H](O)[C@H](O)CO)O3)c(C(F)F)c2)nn1`, for which the Kinact amounted to 0.091 min⁻¹ and the T1/2 was 7.6 min.

These data come from ChEMBL document CHEMBL2021882, “Aglycone-focused randomization of 2-difluoromethylphenyl-type sialoside suicide substrates for neuraminidases” (Bioorg Med Chem, 2012).
